Where only a bound is given, the exact number is not on record here.

The source of these data is patent US6004955A, “Cyclic carbamates and isoxazolidines as IIb/IIIa antagonists” (DuPont Pharmaceuticals Company, priority 1998, dated 1999).

One test has as its system platelet aggregation (using platelet rich plasma (PRP)). Put plainly: Platelet Aggregation Assay (with esterase; ester prodrugs preincubated with porcine liver esterase). The class given is cell-based. Particulars: human platelet rich plasma; preincubated with 100 IU/mL Porcine liver esterase 2 hours at 37° C.; 100 μM Adenosine Diphosphate. On the procedure: (§1) Platelet Aggregation Assay: Venous blood was obtained from the arm of a healthy human donor who was drug-free and aspirin-free for at least two weeks prior to blood collection. Blood was collected into 10 mL citrated Vacutainer tubes. The blood was centrifuged for 15 minutes at 150×g at room temperature, and platelet-rich plasma (PRP) was removed. The remaining blood was centrifuged for 15 minutes at 1500×g at room temperature, and platelet-poor plasma (PPP) was removed. Samples were assayed on a aggregometer (PAP-4 Platelet Aggregation Profiler), using PPP as the blank (100% transmittance). 200 μL of PRP was added to each micro test tube, and transmittance was set to 0%. 20 μL of various agonists (ADP, collagen, arachidonate, epinephrine, thrombin) were added to each tube, and the aggregation profiles were plotted (% transmittance versus time). The results are expressed as % inhibition of agonist-inducedplatelet aggregation. For the IC50 evaluation, the test compounds were added at various concentrations prior to the activation of the platelets.
Ester prodrugs were preincubated (10^-3 M F.C.) with 100 IU/mL Porcine liver esterase (Sigma Chemical Co., St. Louis, Mo., #E-3128) for 2 hours at 37° C. Aliquots are then diluted in 0.1 M Tris, pH 7.4, to the desired concentrations. Aliquots of 20 μl of the esterase pretreated prodrugs are added to 200 μl of human platelet rich plasma. Samples were placed in platelet profiler (aggregometer) for 8 minutes at 37° C., followed by the addition of 100 μM Adenosine Diphosphate, (Sigma Chemical Co., St. Louis, Mo., #A-6521), to induce platelet aggregation. Platelet aggregation was allowed to proceed for 5 minutes. Percent inhibition is calculated using percent aggregation in the presence of the test compound divided by percent aggregation of control, times 100. This value is subtracted from 100, yielding percent inhibition. Calculation of IC50 is performed on a Texas Instruments TI59 with an IC50 program.
(§2) Table A below sets forth the antiplatelet activity of representative compounds of the present invention. The indicated compounds were tested for their ability to inhibit platelet aggregation (using platelet rich plasma (PRP)). The IC50 value (the concentration of antagonist which inhibits platelet aggregation by 50% relative to a control lacking the antagonist) is shown. In Table 5 the IC50 values are expressed as: +++=IC50 of <10 μM (μM=micromolar).
By IC50 is commonly meant the concentration that inhibits the measured activity by half. Turning to `COC(=O)[C@H](CNC(=O)CC1CC(c2ccc(C(=N)N)cc2)N(C)C(=O)O1)NS(=O)(=O)c1c(C)noc1C` (stereo partly drawn) [Example 335, Cis-3-[[[4-[4-(aminoiminomethyl)phenyl]tetrahydro-3-methyl-2-oxo-2H-1,3-oxazin-6-yl]acetyl]amino]-N-[(3,5dimethylisoxazol-4-yl)sulfonyl]-L-alanine methyl ester monotrifluoroacetic acid], the 50% inhibitory concentration (IC50) was less than 10 µM.

Regarding `COC(=O)[C@H](CNC(=O)CC1CC(c2ccc(C(=N)N)cc2)N(C)O1)NS(=O)(=O)c1ccccc1C` (stereo partly drawn) [Example 32, Cis-3-[2-[2-methyl-3-[4-(aminoiminomethyl)phenyl]-isoxazolidin-5-yl]acetyl]amino-N-(2-methylphenylsulfonyl)-L-alanine methyl ester monotrifluoroacetic acid], the IC50 was less than 10 µM.

On to `COC(=O)[C@H](CNC(=O)CC1CC(c2ccc(C(=N)N)cc2)N(C)O1)NS(=O)(=O)c1cccc(C)c1` (stereo partly drawn) [Example 3, Trans-3-[2-[2-methyl-3-[4-(aminoiminomethyl)phenyl]-isoxazolidin-5-yl]acetyl]amino-N-(3-methylphenylsulfonyl)-L-alanine methyl ester monotrifluoroacetic acid], for which the IC50 is less than 10 µM.

Regarding `COC(=O)[C@H](CNC(=O)CC1CC(c2ccc(C(=N)N)cc2)N(C)O1)NS(=O)(=O)c1cccc(C)c1` (stereo partly drawn) [Example 1, Cis-3-[2-[2-methyl-3-[4-(aminoiminomethyl)phenyl]-isoxazolidin-5-yl]-acetyl]amino-N-(3-methylphenylsulfonyl)-L-alanine Methyl Ester Monotrifluoroacetic Acid], the 50% inhibitory concentration (IC50) is less than 10 µM.

In the case of `COC(=O)[C@H](CNC(=O)CC1CC(c2ccc(C(=N)N)cc2)N(C(C)C)O1)NS(=O)(=O)c1cccc(C)c1` (stereo partly drawn) [Example 28, Cis-3-[2-[2-isopropyl-3-[4-(aminoiminomethyl)phenyl]-isoxazolidin-5-yl]acetyl]amino-N-(3-methylphenylsulfonyl)-L-alanine methyl ester monotrifluoroacetic acid], the IC50 is less than 10 µM.

As for `CCCCOC(=O)N[C@@H](CNC(=O)CC1CC(c2ccc(C(=N)N)cc2)N(C)C(=O)O1)C(=O)OC` (stereo partly drawn) [Example 355, Cis-3-[[[4-[4-(aminoiminomethyl)phenyl]tetrahydro-3-methyl-2-oxo-2H-1,3-oxazin-6-yl]acetyl]amino]-N-(n-butyloxycarbonyl)-L-alanine methyl ester monotrifluoroacetic acid], the IC50 is less than 10 µM.

As to `COC(=O)[C@H](CNC(=O)CC1CC(c2ccc(C(=N)N)cc2)N(C)C(=O)O1)NS(=O)(=O)c1cccc(C)c1` (stereo partly drawn) [Example 300, Cis-3-[[[4-[4-(aminoiminomethyl)phenyl]tetrahydro-3-methyl-2-oxo-2H-1,3-oxazin-6-yl]acetyl]amino]-N-[(3-methylphenyl)sulfonyl]-L-alanine methyl ester monotrifluoroacetic acid], the IC50 is less than 10 µM.

`COC(=O)[C@H](CNC(=O)C[C@@H]1C[C@H](c2ccc(C(=N)N)cc2)N(C)O1)NS(=O)(=O)c1c(C)noc1C` (relative stereo) [Example 37, Cis-3-[2-[2-methyl-3-[4-(aminoiminomethyl)phenyl]-isoxazolidin-5-yl]acetyl]amino-N-(3,5-dimethyloxazol-4-ylsulfonyl)-L-alanine methyl ester monotrifluoroacetic]: the half-maximal inhibitory concentration (IC50) is less than 10 µM.

Regarding `COC(=O)[C@H](CNC(=O)CC1CC(c2ccc(C(=N)N)cc2)N(Cc2ccccc2)C(=O)O1)NS(=O)(=O)c1cccc(C)c1` (stereo partly drawn) [Example 321, Cis-3-[[[4-[4-(aminoiminomethyl)phenyl]tetrahydro-3-benzyl-2-oxo-2H-1,3-oxazin-6-yl]acetyl]amino]-N-[(3-methylphenyl)sulfonyl]-L-alanine methyl ester monotrifluoroacetic acid], the IC50 was less than 10 µM.

`COC(=O)[C@H](CNC(=O)CC1CC(c2ccc(C(=N)N)cc2)N(C)C(=O)O1)NS(=O)(=O)c1ccccc1C` (stereo partly drawn) [Example 327, Cis-3-[[[4-[4-(aminoiminomethyl)phenyl]tetrahydro-3-methyl-2-oxo-2H-1,3-oxazin-6-yl]acetyl]amino]-N-[(2-methylphenyl)sulfonyl]-L-alanine methyl ester monotrifluoroacetic acid]: the IC50 is less than 10 µM.

Regarding `CCCCOC(=O)N[C@@H](CNC(=O)CC1CC(c2ccc(C(=N)N)cc2)N(C)O1)C(=O)OC` (stereo partly drawn) [Example 68, Cis-3-[2-[2-methyl-3-[4-(aminoiminomethyl)phenyl]-isoxazolidin-5-yl]acetyl]amino-N-n-butyloxycarbonyl-L-alanine methyl ester monotrifluoroacetic acid], the 50% inhibitory concentration (IC50) was less than 10 µM.

Regarding `COC(=O)[C@H](CNC(=O)CC1CC(c2ccc(C(=N)N)cc2)N(c2ccccc2)O1)NS(=O)(=O)c1cccc(C)c1` (stereo partly drawn) [Example 70, Cis-3-[2-[2-phenyl-3-[4-(aminoiminomethyl)phenyl]-isoxazolidin-5-yl]acetyl]amino-N-(3-methylphenylsulfonyl)-L-alanine methyl ester monotrifluoroacetic acid], the concentration for half-maximal inhibition (IC50) is less than 10 µM.

As to `COC(=O)[C@H](CNC(=O)C[C@@H]1CC(c2ccc(C(=N)N)cc2)N(Cc2ccccc2)O1)NS(=O)(=O)c1cccc(C)c1` (relative stereo) [Example 16, Cis-3-[2-[2-benzyl-3-[4-(aminoiminomethyl)phenyl]-isoxazolidin-5-yl]acetyl]-N-(3-methylphenylsulfonyl)-L-alanine methyl ester monotrifluoroacetic acid], the IC50 is less than 10 µM.

The test system is the same in the next test. Put plainly: Platelet Aggregation Assay (without esterase). The class given is cell-based. The conditions noted are these: human platelet rich plasma. On the procedure:
as §1, §2
As to `Cc1cccc(S(=O)(=O)N[C@@H](CNC(=O)CC2CC(c3ccc(C(=N)N)cc3)N(Cc3ccccc3)C(=O)O2)C(=O)O)c1` (stereo partly drawn) [Example 322, Cis-3-[[[4-[4-(aminoiminomethyl)phenyl]tetrahydro-3-benzyl-2-oxo-2H-1,3-oxazin-6-yl]acetyl]amino]-N-[(3-methylphenyl)sulfonyl]-L-alanine monohydrogenchloride], the half-maximal inhibitory concentration (IC50) was less than 10 µM.

In the case of `Cc1ccccc1S(=O)(=O)N[C@@H](CNC(=O)CC1CC(c2ccc(C(=N)N)cc2)N(C)O1)C(=O)O` (stereo partly drawn) [Example 33, Cis-3-[2-[2-methyl-3-[4-(aminoiminomethyl)phenyl]-isoxazolidin-5-yl]acetyl]amino-N-(2-methylphenylsulfonyl)-L-alanine monohydrogenchloride], the IC50 is less than 10 µM.

`CCCCOC(=O)N[C@@H](CNC(=O)CC1CC(c2ccc(C(=N)N)cc2)N(C)C(=O)O1)C(=O)O` (stereo partly drawn) [Example 356, Cis-3-[[[4-[4-(aminoiminomethyl)phenyl]tetrahydro-3-methyl-2-oxo-2H-1,3-oxazin-6-yl]acetyl]amino]-N-(n-butyloxycarbonyl)-L-alanine monohydrogenchloride]: the half-inhibitory concentration (IC50) was less than 10 µM.

The compound `Cc1ccccc1S(=O)(=O)N[C@@H](CNC(=O)CC1CC(c2ccc(C(=N)N)cc2)N(C)C(=O)O1)C(=O)O` (stereo partly drawn) [Example 328, Cis-3-[[[4-[4-(aminoiminomethyl)phenyl]tetrahydro-3-methyl-2-oxo-2H-1,3-oxazin-6-yl]acetyl]amino]-N-[(2-methylphenyl)sulfonyl]-L-alanine monohydrogenchloride] displayed a 50% inhibitory concentration (IC50) of less than 10 µM.

For the compound `Cc1cccc(S(=O)(=O)N[C@@H](CNC(=O)CC2CC(c3ccc(C(=N)N)cc3)N(C)C(=O)O2)C(=O)O)c1` (stereo partly drawn) [Example 301, Cis-3-[[[4-[4-(aminoiminomethyl)phenyl]tetrahydro-3-methyl-2-oxo-2H-1,3-oxazin-6-yl]acetyl]amino]-N-[(3-methylphenyl)sulfonyl]-L-alanine monohydrogenchloride], the IC50 was less than 10 µM.

Compound `Cc1cccc(S(=O)(=O)N[C@@H](CNC(=O)CC2CC(c3ccc(C(=N)N)cc3)N(C(C)C)O2)C(=O)O)c1` (stereo partly drawn) [Example 29, Cis-3-[2-[2-isopropyl-3-[4-(aminoiminomethyl)phenyl]-isoxazolidin-5-yl]acetyl]amino-N-(3-methylphenylsulfonyl)-L-alanine monohydrogenchloride] registered an IC50 of less than 10 µM.

`Cc1cccc(S(=O)(=O)N[C@@H](CNC(=O)CC2CC(c3ccc(C(=N)N)cc3)N(Cc3ccccc3)O2)C(=O)O)c1` (stereo partly drawn) [Example 17, Cis-3-[2-[2-benzyl-3-[4-(aminoiminomethyl)phenyl]-isoxazolidin-5-yl]acetyl]amino-N-(3-methylphenylsulfonyl)-L-alanine monohydrogenchloride] showed an IC50 of less than 10 µM.
